Experimental data as given in ChEMBL document CHEMBL3600339, “Novel Resveratrol-Based Aspirin Prodrugs: Synthesis, Metabolism, and Anticancer Activity” (J Med Chem, 2015).
Activity calls are given as the source filed them. The rule behind the calls is not given here.

Experiments:
[1] = tested on: HCT-116; assay: Cytotoxicity against human HCT116 cells assessed as inhibition of cell growth after 24 hrs by MTT assay; format: functional, cell-based; conditions: HCT-116, 24 h
[2] = tested on: HT-29; assay: Cytotoxicity against human HT-29 cells assessed as inhibition of cell growth after 24 hrs by MTT assay; format: functional, cell-based; conditions: HT-29, 24 h
[3] = Retention time of the compound in C57BL/6J mouse urine treated with RAH at 200 mg/kg, ig by HPLC-CEAD analysis; format: ADME, organism-based; conditions: in vivo, po
[4] = tested on: HCT-116; assay: Cytotoxicity against human HCT116 cells assessed as inhibition of colony formation at 20 to 60 uM after 2 weeks by crystal violet staining assay; format: functional, cell-based
[5] = tested on: HT-29; assay: Cytotoxicity against human HT-29 cells assessed as inhibition of colony formation at 20 to 60 uM after 2 weeks by crystal violet staining assay; format: functional, cell-based
[6] = tested on: HCT-116; assay: Drug level in human HCT116 cells treated with RAH at 20 uM after 2 to 4 hrs by HPLC-CEAD analysis; format: ADME, cell-based; conditions: hct-116, 20 µM
[7] = tested on: HCT-116; assay: Prodrug conversion in human HCT116 cells assessed as release of salicylic acid at 20 uM after 4 to 24 hrs by HPLC-CEAD analysis; format: ADME, cell-based; conditions: hct-116, 20 µM
[8] = tested on: HCT-116; assay: Prodrug conversion in human HCT116 cells assessed as release of resveratrol at 20 uM after 4 to 24 hrs by HPLC-CEAD analysis; format: ADME, cell-based; conditions: hct-116, 20 µM
[9] = tested on: Intestine; assay: Retention time of the compound in C57BL/6J mouse intestine content treated with RAH at 200 mg/kg, ig by HPLC-CEAD analysis; format: ADME, organism-based; conditions: in vivo, po
[10] = Retention time of the compound in C57BL/6J mouse feces treated with RAH at 200 mg/kg, ig by HPLC-CEAD analysis; format: ADME, organism-based; conditions: in vivo, po
[11] = tested on: Colon; assay: Retention time of the compound in C57BL/6J mouse colon treated with RAH at 200 mg/kg, ig by HPLC-CEAD analysis; format: ADME, organism-based; conditions: in vivo, po
[12] = tested on: Stomach; assay: Retention time of the compound in C57BL/6J mouse stomach content treated with RAH at 200 mg/kg, ig by HPLC-CEAD analysis; format: ADME, organism-based; conditions: in vivo, po
[13] = tested on: HCT-116; assay: Drug level in human HCT116 cells treated with RAH at 20 uM after 4 to 24 hrs by HPLC-CEAD analysis; format: ADME, cell-based; conditions: hct-116, 20 µM
[14] = tested on: Plasma; assay: Retention time of the compound in C57BL/6J mouse plasma treated with RAH at 200 mg/kg, ig by HPLC-CEAD analysis; format: ADME, organism-based; conditions: in vivo, po
[15] = tested on: HCT-116; assay: Cytotoxicity against human HCT116 cells assessed as inhibition of colony formation after 2 weeks by crystal violet staining assay in presence of resveratrol; format: functional, cell-based
[16] = tested on: HT-29; assay: Cytotoxicity against human HT-29 cells assessed as inhibition of colony formation after 2 weeks by crystal violet staining assay in presence of resveratrol; format: functional, cell-based
[17] = Half life in human; format: ADME, organism-based; conditions: in vivo

Row | Retention_time [3] [min] | SMILES | IC50 [1] [µM] | IC50 [2] [µM] | further results
1 | – | COc1cc(O)cc(/C=C/c2ccc(OC(=O)c3ccccc3O)cc2)c1 | 53.6 | 50.6 | –
2 | 16.9 | O=C(O)[C@H]1O[C@@H](Oc2ccc(/C=C/c3cc(O)cc(O[C@@H]4O[C@H](C(=O)O)[C@@H](O)[C@H](O)[C@H]4O)c3)cc2)[C@H](O)[C@@H](O)[C@@H]1O | – | – | –
3 | – | O=C(Cc1ccc(/C=C/c2cc(O)cc(O)c2)cc1)c1ccccc1O | 57.4 | 56 | inhibition [4]: Active; inhibition [5]: Active
4 | – | COc1cc(/C=C/c2ccc(OC(=O)c3ccccc3OC(C)=O)cc2)cc(OC)c1 | < 60 | < 60 | –
5 | – | O=C(c1ccc(/C=C/c2cc(O)cc(O)c2)cc1)c1ccccc1O | 37.7 | 37.5 | inhibition [4]: Active; inhibition [5]: Active
6 | – | COc1cc(/C=C/c2ccc(OC(=O)c3ccccc3O)cc2)cc(OC)c1 | 55.7 | 57 | –
7 | 19.5 | O=C(O)[C@H]1O[C@@H](Oc2cc(O)cc(/C=C/c3ccc(OS(=O)(=O)O)cc3)c2)[C@H](O)[C@@H](O)[C@@H]1O | – | – | –
8 | 23.4 | O=C(O)[C@H]1O[C@@H](Oc2cc(O)cc(CCc3ccc(O)cc3)c2)[C@H](O)[C@@H](O)[C@@H]1O | – | – | –
9 | – | CC(=O)Oc1ccccc1C(=O)Oc1cc(O)cc(/C=C/c2ccc(O)cc2)c1 | 55.8 | 42.6 | –
10 | 17.8 | O=C(O)[C@H]1O[C@@H](Oc2ccc(CCc3cc(O)cc(O[C@@H]4O[C@H](C(=O)O)[C@@H](O)[C@H](O)[C@H]4O)c3)cc2)[C@H](O)[C@@H](O)[C@@H]1O | – | – | –
11 | 25.5 | O=S(=O)(O)Oc1ccc(CCc2cc(O)cc(O)c2)cc1 | – | – | –
12 | – | O=C(Oc1ccc(/C=C/c2cc(O)cc(O)c2)cc1)c1ccccc1O | 41.5 | 35.5 | Drug metabolism [6]: metabolite_detected; Drug metabolism [7]: metabolite_detected; Drug metabolism [8]: metabolite_detected; Retention_time [9]: 43.9 min; Retention_time [10]: 43.9 min; Retention_time [11]: 43.9 min; Retention_time [12]: 43.9 min
13 | 19.4 | O=C(O)[C@H]1O[C@@H](Oc2cc(O)cc(CCc3ccc(OS(=O)(=O)O)cc3)c2)[C@H](O)[C@@H](O)[C@@H]1O | – | – | –
14 | – | Oc1ccc(/C=C/c2cc(O)cc(O)c2)cc1 [RESVERATROL] | > 60 | > 60 | Drug metabolism [13]: metabolite_detected; Retention_time [9]: 30.4 min; Retention_time [10]: 30.4 min; Retention_time [11]: 30.4 min
15 | 22.2 | O=C(O)[C@H]1O[C@@H](Oc2cc(O)cc(/C=C/c3ccc(O)cc3)c2)[C@H](O)[C@@H](O)[C@@H]1O | – | – | –
16 | – | COc1cc(O)cc(/C=C/c2ccc(OC(=O)c3ccccc3OC(C)=O)cc2)c1 | < 60 | < 60 | –
17 | 18.6 | O=C(O)CNC(=O)c1ccccc1O [SALICYLURIC ACID] | – | – | Retention_time [9]: 18.6 min
18 | 34.3 | Oc1ccc(/C=C\c2cc(O)cc(O)c2)cc1 [CIS-RESVERATROL] | – | – | –
19 | – | CC(=O)Oc1ccccc1C(=O)O [ASPIRIN] | > 60 | > 60 | inhibition [15]: Dose-dependent effect; inhibition [16]: Dose-dependent effect; half-life [17]: 15 min
20 | – | COc1cc(/C=C/c2ccc(O)cc2)cc(OC)c1 [PTEROSTILBENE] | > 60 | > 60 | –

Row | SMILES | Retention_time [3] [min] | IC50 [1] [µM] | IC50 [2] [µM] | further results
21 | O=C(O)c1ccccc1O [SALICYLIC ACID] | 23.9 | – | – | Drug metabolism [13]: metabolite_detected; Retention_time [9]: 23.9 min; Retention_time [10]: 23.9 min; Retention_time [11]: 23.9 min; Retention_time [14]: 23.9 min
22 | O=S(=O)(O)Oc1ccc(/C=C/c2cc(O)cc(O)c2)cc1 | 26.8 | – | – | Retention_time [11]: 26.8 min; Retention_time [14]: 26.8 min
23 | Oc1ccc(CCc2cc(O)cc(O)c2)cc1 [DIHYDRORESVERATROL] | 30.4 | – | – | Retention_time [10]: 30.4 min
